Test results published in patent US4798807A, “Monoclonal antibodies and method for detecting dioxins and dibenzofurans” (priority 1986, dated 1989).

Columns and labels:
monoclonal antibody DD-1 = assay: Competition ELISA with monoclonal antibody DD-1; format: binding, Biozzi mice; settings: competitor vs monoclonal antibody DD-1; plate coated with A-triCDD-RSA
Description: (§1) In this case the hybridomas were then screened for their ability to distinguish A-triCDD-BSA and A-triCDD-RSA from BSA and RSA. On the basis of this initial screen about 25 stable, antibody-producing colonies were isolated, subcloned, and frozen. The remaining clones were again screened for their abilities to recognize free TCDD in suspension. Experimentally, on the order of 10-100 nanograms of TCDD in hexane was dried, 0.5 ml of saline with BSA (1 mg/ml) was added and sonificated for 2 hrs. […] Identical procedures were followed for other dioxin isomers. A dilution series in microtiter plate wells was then made with the suspended TCDD, antibody adde, and the competition ELISA completed. Competition ELISA test procedures are discussed in detail in the following reference: Butt, W. R. (1984) "Practical Immunoassay: The State of the Art", Marcel Dekker, Inc., N.Y., N.Y.
(§2) A large part of the success that we have had in characterizing the binding specificities of our monoclonal antibodies comes from having developed a reliable competition ELISA protocol. Our preferred assay starts from stock solutions at 10 ppm in hexane of the various compounds listed in Table I. 10 μl of hexane solution is aliquoted into a small vial, evaporated under a stream of nitrogen gas, and 500 μl of a 1 mg/ml solution of BSA in phosphate buffered saline with 0.1% BSA is added. The vial is capped and placed in an ultrasonic cleaning waterbath for two hours. Two hours of sonification gives a more reproducible assay than does an hour. During the sonification, the hexane appears to evaporate completely, and one is left with an aqueous solution containing the dioxin. Microtiter plates coated with A-triCDD-RSA are blocked with a three percent solution of ovalbumin and a two-fold dilution series of sonificated dioxin-BSA is then made, covering the range 100 ppb-0.1 ppb. In each well of the plate 100 μl of the sonificated dioxin-BSA solution is mixed with n equal volume of antibody. The antibody partitions between the dioxin adsorbed to the BSA, and the A-tri-CDD-RSA on the plate.
(§3) A-TriCDD-RSA was adsorbed onto the surface of the wells of a microtiter plate. The various competitors listed were suspended in saline containing bovine serum albumin (BSA). These solutions were made by sonificating 10 μl of dioxin solution in hexane with 500 μl of saline-BSA. A dilution series of these dioxin-BSA solutions was then made covering the range of 100-0.2 ppb, and placed in the microtiter plate wells. An equal volume of DD-1 monoclonal antibody was then added, and allowed to react for 1 hour. Tne antibody binds either to the A-TriCDD-RSA on the plate or the dioxin in solution. After the hour, the solution phase is removed, the plate washed, and it is reincubated for an hour with peroxidase-conjugated goat-anti-mouse-immunoglobulins. A second washing is then done, and substrate (ABTS) added to the peroxidase. The enzyme-antibody conjugate and substrate function as a "developer", allowing the visualization of the DD-1 bound to the A-triCDD-RSA on the plate. Results are then expressed as a fraction of the response in wells with no competitor. […] At about 20 ppb of 2,3,7,8-TCDD the relative ELISA response is half of control, meaning that half the DD-1 antibody bound to the solution phase dioxin and half bound to the A-triCDD-RSA on the plate. For 1,2,3,7(8)-TCDD, 50% inhibition occurs at about 4 ppb, indicating the DD-1 prefers 1,2,3,7(8)-TCDD to 2,3,7,8-TCDD.
(§4) The FIGURE and Table II show representative competition data using several chlorinated compounds as competitors. From such data, one can determine the concentration required to inhibit antibody binding by 50% (I50). Table II lists the I50 for all compounds tested with the antibodies. In reporting these values, factors of two are about the limit of significance. […] The binding specificities of these antibodies are highly desirable, since they prefer the most toxic of the dioxin and dibenzofuran isomers.

monoclonal antibody DD-3 = assay: Competition ELISA with monoclonal antibody DD-3; format: binding, BALB/c mice; settings: competitor vs monoclonal antibody DD-3; plate coated with A-triCDD-RSA
Description: as §1, §2, §3, §4

monoclonal antibody DD-4 = assay: Competition ELISA with monoclonal antibody DD-4; format: binding, BALB/c mice; settings: competitor vs monoclonal antibody DD-4; plate coated with A-triCDD-RSA
Description: as §1, §2, §3, §4

monoclonal antibody DD-5 = assay: Competition ELISA with monoclonal antibody DD-5; format: binding, Biozzi mice; settings: competitor vs monoclonal antibody DD-5; plate coated with A-triCDD-RSA
Description: as §1, §2, §3, §4

monoclonal antibody DD-6 = assay: Competition ELISA with monoclonal antibody DD-6; format: binding, Biozzi mice; settings: competitor vs monoclonal antibody DD-6; plate coated with A-triCDD-RSA
Description: as §1, §2, §3, §4

Row | SMILES | I50 (inhibits antibody binding by 50%) (monoclonal antibody DD-1) [ng] | I50 (inhibits antibody binding by 50%) (monoclonal antibody DD-3) [ng] | I50 (inhibits antibody binding by 50%) (monoclonal antibody DD-4) [ng] | I50 (inhibits antibody binding by 50%) (monoclonal antibody DD-5) [ng] | I50 (inhibits antibody binding by 50%) (monoclonal antibody DD-6) [ng]
1 | Clc1cc(Cl)c(-c2ccccc2Cl)c(Cl)c1 [2,2',4,6-TCBP] | > 200 | > 200 | > 200 | > 10 | > 200
2 | O=S1OCC2C(CO1)C1(Cl)C(Cl)=C(Cl)C2(Cl)C1(Cl)Cl (centres unmarked) [Endosulfan] | > 2000 | > 2000 | > 2000 | > 2000 | > 2000
3 | O=[N+]([O-])c1c(Cl)ccc2c1Oc1cc(Cl)c(Cl)cc1O2 [1-nitro-2,7,8-TriCDD] | 0 | 0.15 | 0.02 | – | > 0.004
4 | Oc1c(Cl)c(Cl)c(Cl)c(Cl)c1Cl [Pentachlorophenol] | > 2000 | > 2000 | > 2000 | > 2000 | > 2000
5 | ClC1=C(Cl)C2(Cl)C3C(Cl)C(Cl)CC3C1(Cl)C2(Cl)Cl (centres unmarked) [Chlordane] | > 2000 | > 2000 | > 2000 | > 2000 | > 2000
6 | Clc1cc2c(cc1Cl)Oc1c(cc(Cl)c(Cl)c1Cl)O2 [1,2,3,7,8-penta-CDD] | 0.2 | 0.15 | 0.02 | – | > 0.004
7 | Oc1cc(Cl)c(Cl)cc1O [4,5-Dichlorocatechol] | 2000 | > 2000 | > 2000 | > 2000 | > 2000
8 | Clc1cc(-c2cc(Cl)c(Cl)c(Cl)c2Cl)c(Cl)c(Cl)c1Cl [2,2',3,3',4,4',5,5'-Octa-CBP] | > 200 | > 200 | > 200 | > 10 | > 200
9 | Clc1ccc(Cl)c(-c2c(Cl)c(Cl)c(Cl)c(Cl)c2Cl)c1Cl [2,2',3,3',4,5,6,6'-Octa-CBP] | > 200 | > 200 | > 200 | > 10 | > 200
10 | O=C(O)COc1cc(Cl)c(Cl)cc1Cl [2,4,5-Trichlorophenoxyacet, 2,4,5-Trichloro-phenoxyacet] | 2000 | > 2000 | > 2000 | > 2000 | 2700
11 | Nc1c(Cl)ccc2c1Oc1cc(Cl)c(Cl)cc1O2 [1-amino-2,7,8-TriCDD] | 0.2 | > 0.04 | > 0.01 | > 0.02 | 0.02
